The target of this assay is T1, β-glucosidase from L. brevis SK3 (Levilactobacillus brevis, UniProt Q03P52).
T1 sequence (Q03P52 1-751): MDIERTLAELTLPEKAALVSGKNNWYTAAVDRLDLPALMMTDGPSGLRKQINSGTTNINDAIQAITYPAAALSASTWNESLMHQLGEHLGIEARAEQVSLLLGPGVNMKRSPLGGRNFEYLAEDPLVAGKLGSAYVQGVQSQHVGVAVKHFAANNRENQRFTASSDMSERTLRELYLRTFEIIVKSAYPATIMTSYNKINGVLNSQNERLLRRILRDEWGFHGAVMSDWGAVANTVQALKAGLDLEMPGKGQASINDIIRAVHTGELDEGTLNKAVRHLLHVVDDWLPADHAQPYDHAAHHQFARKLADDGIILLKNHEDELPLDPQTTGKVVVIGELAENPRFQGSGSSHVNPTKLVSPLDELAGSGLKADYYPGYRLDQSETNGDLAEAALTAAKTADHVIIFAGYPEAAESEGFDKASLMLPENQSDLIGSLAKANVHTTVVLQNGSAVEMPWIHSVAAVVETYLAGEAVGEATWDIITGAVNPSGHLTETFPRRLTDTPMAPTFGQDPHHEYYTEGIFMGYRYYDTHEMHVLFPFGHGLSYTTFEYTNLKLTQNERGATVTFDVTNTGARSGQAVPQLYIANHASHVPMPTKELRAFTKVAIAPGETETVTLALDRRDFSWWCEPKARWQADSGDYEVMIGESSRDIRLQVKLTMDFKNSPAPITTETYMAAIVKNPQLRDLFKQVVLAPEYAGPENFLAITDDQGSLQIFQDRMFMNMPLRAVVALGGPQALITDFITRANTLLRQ
Description: standard glucosidase assay, p-nitrophenol at […] nm after stop. The note with it: inhibitor, 10 mM pNPβGlc, pH 5.5, 37 °C, 10 min. Format: biochemical.

`O=C(O)[C@H](O)[C@@H](O)[C@H](O)[C@H](O)CO` [Gluconic acid]: where the note is “200000 µM”, the “Relative activity (%)” value came to 17%.

Regarding `OC[C@H]1OC(O)[C@H](O)[C@@H](O)[C@@H]1O` (stereo partly drawn) [Glucose], the “Relative activity (%)” value (200000 µM) was found to be 59%.

For the molecule `O=C1O[C@H](CO)[C@@H](O)[C@H](O)[C@H]1O` [Glucono-δ-lactone], for the setting “10000 µM”, the “Relative activity (%)” value is recorded as 14%.

Values taken from paper PMC3033209 (Journal of applied microbiology, 2009).
